Experimental data reported in article PMC9046208, “Foldamers reveal and validate therapeutic targets associated with toxic α-synuclein self-assembly” (Nature Communications, 2022).

How the values were obtained:
SH-SY5Y cells = test: MTT cytotoxicity assay, SH-SY5Y cells; type: cell-based; details: 24 h, αS alone 48 ± 3%
Experimental: An MTT assay was conducted to assess the effect of SK-129 on the cytotoxicity mediated by αS aggregation in SH-SY5Y cells. The cells were cultured in phenol red-free Dulbeco’s Modified Eagle Medium (DMEM) with 10% Fetal Bovine Serum (FBS) and 1% penicillin-streptomycin (Pen/strep) at 37 °C and 5% CO2(g). The cells were plated in a clear, flat bottom 96-well cell culture plate (Costar, Kennebunk, ME) using a density of 10,000 cells per well with more than 90% cell viability. After incubating for 24 h, the media was aspirated, and 100 µL of fresh OptiMEM (Fisher Scientific, Pittsburgh, PA) was added, […] of various ligands at various stoichiometric ratios. The samples were then incubated for an additional 24 h at 37 °C and 5% CO2(g), followed by the addition of MTT dye (10 µL per well, prepared in 1x PBS buffer, 5 mg/mL). The plates were covered in aluminum foil and incubated again for 3 h. The solution in each well was carefully removed without disturbing the formazan crystals and replaced with 100 µL of DMSO to dissolve the formazan crystals. Subsequently, the plate was shaken in a 96-well plate reader for 5 min before measuring the absorbance at 570 nm. The cell viability was reported on a scale of 100%, using the control wells with regular media as 100% viability and the wells with 10% DMSO (v/v) as 0% viability.

[1] = biological target: T1, αS1 seed-catalyzed aggregation (Homo sapiens, UniProt P37840, DEL6-12); test: Seed-catalyzed ThT aggregation assay (10% WT αS seeds), αS1; type: biochemical; details: αS1, equimolar ratio
T1 construct: made in house; host or cells: Escherichia coli BL21(DE3)
Experimental: Seed-catalyzed αS aggregation assay was performed similarly to a previously described protocol. Briefly, 100 μM monomeric WT αS solution (200 μL, in 1x PBS buffer) was placed into a ThermoMixer (Eppendorf, Hamberg, Germany) and shook for five days at a rate of […] and 37 °C. The solution was sonicated for 10 min and used as αS seeds. The seed-catalyzed aggregation of WT αS/ αS variants was performed by adding αS seeds (10% seeds, αS in monomeric concentration, v/v) into 140 μL of fresh 100 μM WT αS/ αS variants solution and aggregation was started with constant shaking at a rate of […] and 37 °C. The aggregation of proteins was monitored at the indicated times (See the main manuscript) using the above-mentioned method.
The ThT aggregation assay for each protein (WT αS and αS variants) in the presence of SK-129 was carried out the above-mentioned method. SK-129 (from 10 mM stock solution in DMSO) was added at an equimolar ratio (1% DMSO, v/v) to the proteins at the start of the aggregation experiment. The concentration of DMSO was kept constant (1%, v/v) in protein (WT αS and αS variants), control, and protein+molecule solutions. The kinetic profiles of protein aggregation were processed using OriginPro software (Version 9.1). Kinetic curves were fit using a built-in sigmoidal fit in the OriginLab.

[2] = system: HEK293 cells expressing αS-A53T-YFP; test: MTT assay, HEK293 cells αS-A53T-YFP, recombinant αS fibers; type: cell-based; parameters: key to MTT read-out (viability of HEK cells): absorbance at 570 nm (dissolved formazan); details: for MTT read-out (viability of HEK cells): 7 μM αS + SK-129 equimolar
Experimental: The HEK293 cells that stably express αS-A53T-YFP and αS-YFP were grown in DMEM with 10% FBS and 1% pen/strep and cultured in an incubator at 37 °C and 5% CO2(g). A total of 60,000 cells per well in 300 µL media were plated in a µ-slide eight-well plate (Ibidi, Munich, Germany) and incubated for 24 h to adhere to the plate. […] Next, the plate was incubated for 24 h, followed by the addition of 30 µL of 1x PBS buffer containing MTT dye (in 1x PBS buffer, 5 mg/mL) to each well. The plates were wrapped in aluminum foil and incubated for 3 h. After 3 h, all liquid was aspirated carefully without disturbing the formazan crystals. To each well, 300 µL of DMSO was added to dissolve the crystals. Once dissolved, the DMSO solution was transferred to a clear 96-well plate (100 µL/well). The absorbance was read on a 96-well plate reader at 570 nm. The cytotoxicity of the HEK cells was monitored for up to 4 days.
The seeds were generated by aggregating recombinant αS (100 µM) in the absence and presence of SK-129 at an equimolar ratio under the ThT aggregation kinetic conditions for seven days. In the case of seeds from the brain, we used a PMCA sample (5th cycle) generated from the brain seeds in the absence and presence of SK-129 at an equimolar ratio.

In the case of `COC(=O)c1cc(OCC(=O)O)c2cccc(NC(=O)c3cc(OC(C)C)c4cccc(NC(=O)c5cc(OCC(=O)O)c6cccc(NC(=O)c7cc(OC(C)C)c8cccc([N+](=O)[O-])c8n7)c6n5)c4n3)c2n1` [SK-129], the “viability of SH-SY5Y cells” value (SH-SY5Y cells; 10 μM αS aggregated with SK-129, 1:0.1 (αS:SK-129)) was 91 ± 4%, the “viability of SH-SY5Y cells” value (SH-SY5Y cells; 10 μM αS aggregated with SK-129, 1:1 (αS:SK-129)) was 97 ± 4% and the “effect on seed-catalyzed aggregation” value [1] was “wholly suppressed”. For the same compound, the “MTT read-out (viability of HEK cells)” value ([2]; trial 1) was 0.806, the “MTT read-out (viability of HEK cells)” value ([2]; trial 2) was 0.8743 and the “MTT read-out (viability of HEK cells)” value ([2]; trial 3) was 0.8833. For the same compound, the “MTT read-out (viability of HEK cells)” value ([2]; trial 4) was 0.8674, the “MTT read-out (viability of HEK cells)” value ([2]; trial 5) was 0.8626 and the “MTT read-out (viability of HEK cells)” value ([2]; trial 6) was 0.8492. The “MTT read-out (viability of HEK cells)” value ([2]; trial 7) was 0.941, the “MTT read-out (viability of HEK cells)” value ([2]; trial 8) was 0.878 and the “MTT read-out (viability of HEK cells)” value ([2]; trial 9) was 0.892. The “MTT read-out (viability of HEK cells)” value ([2]; trial 10) was 0.917, the “MTT read-out (viability of HEK cells)” value ([2]; trial 11) was 0.805 and the “MTT read-out (viability of HEK cells)” value ([2]; trial 12) was 0.8882. The “MTT read-out (viability of HEK cells)” value ([2]; trial 13) was 0.8431, the “MTT read-out (viability of HEK cells)” value ([2]; trial 14) was 0.8823 and the “MTT read-out (viability of HEK cells)” value ([2]; trial 15) was 0.919. The “MTT read-out (viability of HEK cells)” value ([2]; trial 16) was 0.8589 and the “viability of HEK cells” value ([2]; αS aggregated with SK-129 equimolar, 7 μM, 24 h, αS alone 68%) was 94%.
